Experimental data from ChEMBL document CHEMBL3885861, “Open TG-GATES”.

Organism: Rattus norvegicus
Assay: Open TG-GATES - Regimen: Single
Format: toxicity, organism-based, Sprague-Dawley
Design: regimen Single, gender Male, age 6 weeks
Conditions: in vivo, po, 300 mg/kg, route gavage, dose level High; for APTT / Bas / Eos / Fbg / Hb / Ht / Lym / MCHC / MCV / Mono / Neu / PT / Plat / RBC / Ret / WBC: tissue Blood; for KIDNEY_L / KIDNEY_R / KIDNEY_TOTAL: tissue Kidney; for LIVER: tissue Liver; for ALP / ALT / AST / BUN / CRE / Ca / Cl / DBIL / GLC / IP / K / LDH / Na / PL / RALB / TBIL / TC / TG / TP / gamma-GTP: tissue Plasma

SMILES: CS(=O)(=O)Nc1ccc([N+](=O)[O-])cc1Oc1ccccc1 [NIMESULIDE]
- TERMINAL_BW (3 h): 200.7 g
- APTT (3 h): 21.2 s
- Bas (3 h): 0%
- Eos (3 h): 1.4%
- Fbg (3 h): 206.8 mg/dL
- Hb (3 h): 13 g/dL
- Ht (3 h): 38.1%
- Lym (3 h): 69.4%
- MCHC (3 h): 34.1%
- MCV (3 h): 65.4 fL
- Mono (3 h): 6%
- Neu (3 h): 23.6%
- PT (3 h): 12.4 s
- Plat (3 h): 109.9 x10_4/uL
- RBC (3 h): 582.6 x10_4/ul
- Ret (3 h): 11.4%
- WBC (3 h): 70.5 x10_2/uL
- KIDNEY_L (3 h): 0.9 g
- KIDNEY_R (3 h): 0.9 g
- KIDNEY_TOTAL (3 h): 1.8 g
- LIVER (3 h): 8.9 g
- ALP (3 h): 841.8 IU/L
- ALT (3 h): 35.8 IU/L
- AST (3 h): 62.8 IU/L
- BUN (3 h): 21.4 mg/dL
- CRE (3 h): 0.6 mg/dL
- Ca (3 h): 10.7 mg/dL
- Cl (3 h): 102.8 meq/L
- DBIL (3 h): 0.046 mg/dL
- GLC (3 h): 313.4 mg/dL
- IP (3 h): 9.9 mg/dL
- K (3 h): 4.9 meq/L
- LDH (3 h): 88.4 IU/L
- Na (3 h): 138 meq/L
- PL (3 h): 137.4 mg/dL
- RALB (3 h): 3.8 g/dL
- TBIL (3 h): 0.4 mg/dL
- TC (3 h): 81.2 mg/dL
- TG (3 h): 49.6 mg/dL
- TP (3 h): 5.1 g/dL
- gamma-GTP (3 h): 1 IU/L
- TERMINAL_BW (6 h): 196.2 g
- APTT (6 h): 19.9 s
- Bas (6 h): 0%
- Eos (6 h): 0.8%
- Fbg (6 h): 207.8 mg/dL
- Hb (6 h): 13 g/dL
- Ht (6 h): 39%
- Lym (6 h): 68.4%
- MCHC (6 h): 33.2%
- MCV (6 h): 64.4 fL
- Mono (6 h): 2.6%
- Neu (6 h): 28.6%
- PT (6 h): 12.5 s
- Plat (6 h): 110.2 x10_4/uL
- RBC (6 h): 605.8 x10_4/ul
- Ret (6 h): 9.2%
- WBC (6 h): 44 x10_2/uL
- KIDNEY_L (6 h): 0.8 g
- KIDNEY_R (6 h): 0.9 g
- KIDNEY_TOTAL (6 h): 1.7 g
- LIVER (6 h): 8.1 g
- ALP (6 h): 978 IU/L
- ALT (6 h): 30.6 IU/L
- AST (6 h): 61.6 IU/L
- BUN (6 h): 19.4 mg/dL
- CRE (6 h): 0.7 mg/dL
- Ca (6 h): 10.4 mg/dL
- Cl (6 h): 101.6 meq/L
- DBIL (6 h): 0.028 mg/dL
- GLC (6 h): 360 mg/dL
- IP (6 h): 10.7 mg/dL
- K (6 h): 4.5 meq/L
- LDH (6 h): 83.4 IU/L
- Na (6 h): 135.4 meq/L
- PL (6 h): 135 mg/dL
- RALB (6 h): 3.8 g/dL
- TBIL (6 h): 0.4 mg/dL
- TC (6 h): 80.4 mg/dL
- TG (6 h): 27 mg/dL
- TP (6 h): 5.3 g/dL
- gamma-GTP (6 h): 1 IU/L
- TERMINAL_BW (9 h): 192.8 g
- APTT (9 h): 19 s
- Bas (9 h): 0%
- Eos (9 h): 0%
- Fbg (9 h): 208.8 mg/dL
- Hb (9 h): 13.2 g/dL
- Ht (9 h): 39.2%
- Lym (9 h): 74.5%
- MCHC (9 h): 33.8%
- MCV (9 h): 65 fL
- Mono (9 h): 4.5%
- Neu (9 h): 20.8%
- PT (9 h): 12.8 s
- Plat (9 h): 108.6 x10_4/uL
- RBC (9 h): 603.2 x10_4/ul
- Ret (9 h): 10.1%
- WBC (9 h): 54.5 x10_2/uL
- KIDNEY_L (9 h): 0.8 g
- KIDNEY_R (9 h): 0.9 g
- KIDNEY_TOTAL (9 h): 1.7 g
- LIVER (9 h): 7.3 g
- ALP (9 h): 850.5 IU/L
- ALT (9 h): 26.8 IU/L
- AST (9 h): 59.8 IU/L
- BUN (9 h): 17.8 mg/dL
- CRE (9 h): 0.7 mg/dL
- Ca (9 h): 10.4 mg/dL
- Cl (9 h): 102.2 meq/L
- DBIL (9 h): 0.0125 mg/dL
- GLC (9 h): 323.5 mg/dL
- IP (9 h): 9.2 mg/dL
- K (9 h): 4.8 meq/L
- LDH (9 h): 121.2 IU/L
- Na (9 h): 133.5 meq/L
- PL (9 h): 128.2 mg/dL
- RALB (9 h): 4 g/dL
- TBIL (9 h): 0.4 mg/dL
- TC (9 h): 76.5 mg/dL
- TG (9 h): 14.2 mg/dL
- TP (9 h): 5.3 g/dL
- gamma-GTP (9 h): 1.8 IU/L
- TERMINAL_BW (24 h): 182.2 g
- APTT (24 h): 18.9 s
- Bas (24 h): 0%
- Eos (24 h): 1%
- Fbg (24 h): 187 mg/dL
- Hb (24 h): 13.7 g/dL
- Ht (24 h): 40.7%
- Lym (24 h): 61.2%
- MCHC (24 h): 33.7%
- MCV (24 h): 63.7 fL
- Mono (24 h): 9.8%
- Neu (24 h): 28.2%
- PT (24 h): 12.7 s
- Plat (24 h): 126.6 x10_4/uL
- RBC (24 h): 639.4 x10_4/ul
- Ret (24 h): 9.5%
- WBC (24 h): 117.8 x10_2/uL
- KIDNEY_L (24 h): 0.9 g
- KIDNEY_R (24 h): 0.9 g
- KIDNEY_TOTAL (24 h): 1.9 g
- LIVER (24 h): 8.1 g
- ALP (24 h): 783.2 IU/L
- ALT (24 h): 27.2 IU/L
- AST (24 h): 64.8 IU/L
- BUN (24 h): 22.8 mg/dL
- CRE (24 h): 0.8 mg/dL
- Ca (24 h): 9.9 mg/dL
- Cl (24 h): 108 meq/L
- DBIL (24 h): 0.032 mg/dL
- GLC (24 h): 209 mg/dL
- IP (24 h): 7.3 mg/dL
- K (24 h): 4.6 meq/L
- LDH (24 h): 99.6 IU/L
- Na (24 h): 139.6 meq/L
- PL (24 h): 110.4 mg/dL
- RALB (24 h): 3.9 g/dL
- TBIL (24 h): 0.4 mg/dL
- TC (24 h): 55.4 mg/dL
- TG (24 h): 41.2 mg/dL
- TP (24 h): 5.2 g/dL
- gamma-GTP (24 h): 1.8 IU/L
